According to EP0445023A1, “Vehicle for a therapeutically active agent for external use and antiseptic preparation comprising said vehicle” (INNOTHERA, priority 1990, dated 1991):

Test: ex vivo transcutaneous passage
Format: in vitro ADME
Details: peau épilée ou rasée de rats, applied as the antiseptic preparation

## O=C(Nc1ccc(Cl)cc1)Nc1ccc(Cl)c(Cl)c1 [principe actif, trichloro-3,4,4′ carbanilide]
  passage transcutané du principe actif: n'ont pas permis de déceler un passage transcutané
